The values below come from patent US20060292653A1, “Metal mediated fluorescence superquenching assays for detection of phosphorylation and dephosphorylation of quencher-labeled substrates” (priority 2005, published 2006).

What all share (format): biochemical
For test [1], the target named is T1, PI3 alpha (Homo sapiens, UniProt P42336).
T1 construct: purchased Upstate (Lake Placid, N.Y.)
The test can be described thus: Enhancer activity, real-time (kinetic) versus endpoint monitoring. From the text:
(§1) Kinetic or real-time assays allow one to observe the mode of action of inhibitors and activator of enzyme activity in “real time”. Several inhibitor profiles are contemplated herein.
(§2) Another type of inhibitor profile utilizes the mode of action of enhancers. Enhancers may cause a very steep increase in activity (compared to control) within several minutes of reaction and then flatten out over time to an activity equal to that of the control. Thus, endpoint measurement could miss these enhancers. For example, Trypohostin 35, Trypohostin 25 and GW 5074 are enhancers of PI3 alpha, beta, and delta, respectively, in real time, and result in a >50% increase of activity within 5 minutes of reaction compared to ˜20% when monitored in endpoint mode. Enhancers may not be of therapeutic value for PI3Ks (since their pathological effect is exerted mainly by over-activity to begin with) but knowledge of chemical structure of enhancers may facilitate identification and/or confirmation of environmental pathogens, which may cause disease.

Test [2] has as its target T2, PI3K δ (Homo sapiens, UniProt O00329).
T2 construct: purchased Upstate (Lake Placid, N.Y.)
The conditions noted are these: ratiometric 490 nm/574 nm.
Protocol: Percent activities are plotted for each compound screened using the ratio of wavelengths at 490 nm/574 nm. Inhibition values were calculated relative to positive and negative controls wells and corrected for background (filled squares, filled diamonds). […] Final concentrations of enzyme, substrate and ATP were 2.6 nM, 250 nM and 50 μM. The delta RFU between reactions in the presence and absence of enzyme were obtained and used to calculate % inhibition.

The target of test [3] is T3, PI3 beta (Homo sapiens, UniProt P42338).
T3 construct: purchased Upstate (Lake Placid, N.Y.)
The test can be described thus: Enhancer activity, real-time (kinetic) versus endpoint monitoring.
From the text: as §1, §2

Test [4] concerns the target T4, PI3 delta (Homo sapiens, UniProt O00329).
T4 construct: purchased Upstate (Lake Placid, N.Y.)
Described as above.
From the text: as §1, §2

Where [5] appears, read: real time, within 5 minutes of reaction.

Bounds are passed on as bounds.

T4 sequence (O00329 whole entry, species assumed): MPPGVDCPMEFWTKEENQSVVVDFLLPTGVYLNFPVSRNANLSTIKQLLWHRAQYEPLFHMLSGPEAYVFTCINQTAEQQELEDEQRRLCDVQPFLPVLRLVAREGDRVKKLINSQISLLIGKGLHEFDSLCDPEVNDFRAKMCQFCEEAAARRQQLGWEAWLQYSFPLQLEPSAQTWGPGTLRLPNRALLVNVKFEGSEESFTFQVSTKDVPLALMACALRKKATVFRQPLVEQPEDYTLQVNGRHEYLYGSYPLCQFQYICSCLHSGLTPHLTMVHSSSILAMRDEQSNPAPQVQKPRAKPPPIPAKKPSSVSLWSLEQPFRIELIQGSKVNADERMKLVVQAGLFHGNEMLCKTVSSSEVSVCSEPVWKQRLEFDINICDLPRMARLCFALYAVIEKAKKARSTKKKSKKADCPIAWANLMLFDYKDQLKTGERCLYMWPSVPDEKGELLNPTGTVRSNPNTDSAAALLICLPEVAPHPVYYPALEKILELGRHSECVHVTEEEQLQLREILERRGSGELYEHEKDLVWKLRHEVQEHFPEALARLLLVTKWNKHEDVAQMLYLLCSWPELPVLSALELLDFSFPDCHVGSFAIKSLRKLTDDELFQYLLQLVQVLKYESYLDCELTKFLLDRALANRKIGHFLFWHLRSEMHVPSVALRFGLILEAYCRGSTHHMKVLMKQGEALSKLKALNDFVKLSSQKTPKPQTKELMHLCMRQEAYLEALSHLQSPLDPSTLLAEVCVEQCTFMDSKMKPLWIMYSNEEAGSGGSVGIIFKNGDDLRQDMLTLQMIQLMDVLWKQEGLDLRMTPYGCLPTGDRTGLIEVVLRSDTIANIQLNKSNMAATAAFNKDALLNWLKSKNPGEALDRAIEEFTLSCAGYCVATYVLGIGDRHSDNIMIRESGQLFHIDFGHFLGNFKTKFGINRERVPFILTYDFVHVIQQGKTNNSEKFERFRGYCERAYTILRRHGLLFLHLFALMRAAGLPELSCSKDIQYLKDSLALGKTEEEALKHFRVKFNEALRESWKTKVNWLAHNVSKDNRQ
T4 sequence (P27986 whole entry partner, species assumed): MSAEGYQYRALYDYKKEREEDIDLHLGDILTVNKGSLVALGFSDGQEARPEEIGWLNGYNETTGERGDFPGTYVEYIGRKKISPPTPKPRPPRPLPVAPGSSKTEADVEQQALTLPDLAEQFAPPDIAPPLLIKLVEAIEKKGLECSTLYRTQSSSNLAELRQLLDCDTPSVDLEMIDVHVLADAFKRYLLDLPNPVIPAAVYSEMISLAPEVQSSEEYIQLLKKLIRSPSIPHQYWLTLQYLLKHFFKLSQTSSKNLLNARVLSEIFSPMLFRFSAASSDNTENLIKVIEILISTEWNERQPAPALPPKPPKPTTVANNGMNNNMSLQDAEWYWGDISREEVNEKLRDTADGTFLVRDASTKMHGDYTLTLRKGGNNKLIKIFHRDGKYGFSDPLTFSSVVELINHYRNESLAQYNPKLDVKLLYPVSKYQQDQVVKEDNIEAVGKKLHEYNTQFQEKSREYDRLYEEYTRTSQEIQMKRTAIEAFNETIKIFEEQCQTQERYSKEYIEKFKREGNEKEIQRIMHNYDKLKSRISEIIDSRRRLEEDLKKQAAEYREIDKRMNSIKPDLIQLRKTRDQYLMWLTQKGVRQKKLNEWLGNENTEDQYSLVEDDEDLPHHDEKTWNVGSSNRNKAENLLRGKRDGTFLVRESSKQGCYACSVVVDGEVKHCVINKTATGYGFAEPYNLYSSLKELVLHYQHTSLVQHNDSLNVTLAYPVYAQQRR
T1 sequence (P42336 whole entry, species assumed): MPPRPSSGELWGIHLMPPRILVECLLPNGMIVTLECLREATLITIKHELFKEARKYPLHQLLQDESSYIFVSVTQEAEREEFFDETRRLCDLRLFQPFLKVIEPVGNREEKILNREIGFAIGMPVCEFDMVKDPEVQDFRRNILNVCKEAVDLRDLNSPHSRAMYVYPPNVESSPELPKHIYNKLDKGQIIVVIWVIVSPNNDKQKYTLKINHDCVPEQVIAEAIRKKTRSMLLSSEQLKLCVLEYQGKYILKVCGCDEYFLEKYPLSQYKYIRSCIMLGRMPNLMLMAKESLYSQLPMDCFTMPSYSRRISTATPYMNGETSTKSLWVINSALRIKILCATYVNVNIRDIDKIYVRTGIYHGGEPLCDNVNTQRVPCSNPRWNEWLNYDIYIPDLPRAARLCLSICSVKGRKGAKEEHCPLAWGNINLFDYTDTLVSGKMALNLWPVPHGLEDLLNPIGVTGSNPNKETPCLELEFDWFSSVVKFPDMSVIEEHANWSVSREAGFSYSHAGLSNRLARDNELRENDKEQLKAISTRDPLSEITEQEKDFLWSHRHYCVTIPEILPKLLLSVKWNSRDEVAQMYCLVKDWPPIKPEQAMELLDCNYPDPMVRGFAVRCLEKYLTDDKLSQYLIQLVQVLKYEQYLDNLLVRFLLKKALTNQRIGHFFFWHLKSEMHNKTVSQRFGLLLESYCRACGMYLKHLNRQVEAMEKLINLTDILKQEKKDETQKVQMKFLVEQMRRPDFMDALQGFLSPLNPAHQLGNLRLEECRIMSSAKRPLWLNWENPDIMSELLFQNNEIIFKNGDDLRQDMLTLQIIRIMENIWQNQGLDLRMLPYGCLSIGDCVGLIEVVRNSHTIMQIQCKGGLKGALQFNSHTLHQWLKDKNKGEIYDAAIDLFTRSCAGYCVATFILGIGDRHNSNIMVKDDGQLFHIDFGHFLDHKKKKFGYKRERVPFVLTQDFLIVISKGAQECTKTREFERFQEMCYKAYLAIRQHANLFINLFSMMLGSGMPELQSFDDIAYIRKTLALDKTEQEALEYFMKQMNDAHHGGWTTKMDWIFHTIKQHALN
T1 sequence (P27986 whole entry partner, species assumed): as the sequence (P27986 whole entry partner, species assumed) above
T3 sequence (P42338 whole entry): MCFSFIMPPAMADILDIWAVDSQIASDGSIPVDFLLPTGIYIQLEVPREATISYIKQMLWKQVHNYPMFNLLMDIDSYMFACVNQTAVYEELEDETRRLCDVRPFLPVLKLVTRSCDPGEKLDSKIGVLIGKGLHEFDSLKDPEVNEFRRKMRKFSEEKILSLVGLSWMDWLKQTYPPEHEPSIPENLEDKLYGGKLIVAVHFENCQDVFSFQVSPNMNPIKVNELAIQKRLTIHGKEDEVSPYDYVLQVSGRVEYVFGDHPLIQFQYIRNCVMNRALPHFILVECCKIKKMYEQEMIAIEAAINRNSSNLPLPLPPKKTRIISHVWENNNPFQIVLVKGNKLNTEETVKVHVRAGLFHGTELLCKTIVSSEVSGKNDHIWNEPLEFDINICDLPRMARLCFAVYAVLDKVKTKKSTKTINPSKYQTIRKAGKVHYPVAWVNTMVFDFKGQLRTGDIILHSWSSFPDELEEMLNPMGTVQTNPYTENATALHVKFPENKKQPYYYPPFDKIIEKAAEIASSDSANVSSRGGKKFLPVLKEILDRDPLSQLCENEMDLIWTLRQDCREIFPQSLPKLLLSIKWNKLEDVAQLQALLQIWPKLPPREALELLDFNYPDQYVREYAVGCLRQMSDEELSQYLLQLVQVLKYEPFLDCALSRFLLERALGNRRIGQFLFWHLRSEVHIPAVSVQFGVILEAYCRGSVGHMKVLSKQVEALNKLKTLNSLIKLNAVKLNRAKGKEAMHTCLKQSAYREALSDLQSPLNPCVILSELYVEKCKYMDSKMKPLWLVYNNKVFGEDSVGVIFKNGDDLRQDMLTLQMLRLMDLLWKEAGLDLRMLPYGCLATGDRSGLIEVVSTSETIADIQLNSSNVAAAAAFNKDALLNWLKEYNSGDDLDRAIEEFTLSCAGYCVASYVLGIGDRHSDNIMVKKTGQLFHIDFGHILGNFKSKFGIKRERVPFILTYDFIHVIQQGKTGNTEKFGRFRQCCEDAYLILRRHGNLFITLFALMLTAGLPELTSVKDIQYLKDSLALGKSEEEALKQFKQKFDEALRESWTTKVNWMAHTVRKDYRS
T3 sequence (P27986 whole entry partner): as the sequence (P27986 whole entry partner, species assumed) above
T2 sequence (O00329 whole entry, species assumed): as the sequence (O00329 whole entry, species assumed) above
T2 sequence (P27986 whole entry partner, species assumed): as the sequence (P27986 whole entry partner, species assumed) above

Take Trypohostin 35: the “increase of activity compared to control” value in test [1] (endpoint mode) is given as roughly 20%; in test [1] (setting [5]) it was greater than 50%.
For the compound `O.O.O=c1c(O)c(-c2ccc(O)c(O)c2)oc2cc(O)cc(O)c12` [Quercetin Dihydrate], the “identification as inhibitor in the 84 compound screen” value in test [2] is “correctly identified”.
Consider `N#CC(C#N)=Cc1cc(O)c(O)c(O)c1` [Trypohostin 25], for which the “increase of activity compared to control” value is roughly 20% in test [3] (endpoint mode) and greater than 50% in test [3] (setting [5]).
On to `O=C1Nc2ccc(I)cc2/C1=C/c1cc(Br)c(O)c(Br)c1` [GW 5074], for which the figures for the “increase of activity compared to control” value in test [4] (endpoint mode) and in test [4] (setting [5]) were roughly 20% and greater than 50%, respectively.
